Measurements reported in US20230321066A1, “PREVENTATIVE TREATMENT OF MIGRAINE” (priority 2020, published 2023).

What was measured:
[1] = test system: episodic and chronic migraine patients; conditions: human, in vivo, 12 weeks
[2] = test system: episodic and chronic migraine patients; assay: BHV3000-305 Phase 2/3 randomized, double-blind, placebo-controlled study of rimegepant in migraine prevention: efficacy; assay type: in vivo, human
Procedure: Clinical Trial—BHV3000-305: A Phase 2/3, Randomized, Double-blind, Placebo-controlled Study to Evaluate the Efficacy and Safety of Rimegepant in Migraine Prevention (ClinicalTrials.gov Identifier: NCT03732638).
A phase 2/3 clinical study was conducted with 1629 participants, as follows.
The purpose of this is study is to compare the efficacy of BHV-3000 (rimegepant) to placebo as a preventive treatment for migraine, as measured by the reduction in the number of migraine days per month.
• Study Type: Interventional (Clinical Trial) • Actual Enrollment: 1629 participants • Allocation: Randomized • Intervention Model: Parallel Assignment • Masking: Triple (Participant, Care Provider, Investigator) • Primary Purpose: Prevention • Official Title: A Phase 2/3, Randomized, Double-blind, Placebo-controlled Study to Evaluate the Efficacy and Safety of Rimegepant in Migraine Prevention • Actual Study Start Date: Nov. 14, 2018 • Actual Primary Completion Date: Dec. 10, 2019
Primary Outcome Measures: • 1. Change from baseline in mean number of migraine days per month [Time Frame: Mean number of migraine days per month as assessed over 3 months (12 weeks)] • Change from baseline in mean number of migraine days per month as measured over the 12-week double-blind phase of the study.
Secondary Outcome Measures: • 1. Achievement of at least a 50% reduction from baseline in mean number of moderate to severe monthly migraine days. [Time Frame: baseline to end of Week 12] • Achievement of at least a 50% reduction from baseline in mean number of moderate to severe monthly migraine days over course of the double-blind treatment phase. • 2. The mean number of rescue medication days per month. [Time Frame: baseline to end of week 12 as measure per month] • The mean number of rescue medication days per month over the course of the double-blind, treatment phase. Rescue medications include the rescue medications defined in this protocol. • 3. Adverse events. [Time Frame: baseline to end of Week 12] • Adverse events that occur in at least 5% of treated subjects; the frequency of unique subjects with serious adverse events, adverse events leading to discontinuation and clinically significant laboratory abnormalities, as reported on case report forms. • 4. The frequency of AST or ALT elevations. [Time Frame: baseline to end of Week 12] • The frequency of AST or ALT elevations>3×ULN, concurrently with bilirubin elevations>2×ULN, will be assessed by tabulating the number of unique subjects with this pairing of events. • 5. The frequency of hepatic-related adverse events and hepatic-related treatment. [Time Frame: baseline to end of Week 12] • The frequency of hepatic-related adverse events and hepatic-related treatment discontinuations will be tabulated from case report forms and will be based on unique subjects reporting such events. • 6. The mean change from baseline in the MSQ role function [Time Frame: baseline to end of Week 12] • The mean change from baseline in the MSQ role function—restrictive domain score at Week 12 of the double-blind treatment phase. • 7. The mean change from baseline in the MIDAS total score. [Time Frame: baseline to end of Week 12] • The mean change from baseline in the MIDAS total score at Week 12 of the double-blind treatment phase.
This pivotal study enrolled patients with both episodic and chronic migraine. The study evaluated the efficacy and safety of rimegepant 75 mg (n=370) dosed every other day for the preventive treatment of migraine in patients versus placebo (n=371) who had migraine for at least one year and 4 to 18 moderate to severe migraine attacks per month over three months prior to enrollment. During the one-month observation period, patients experienced on average 10.7 migraine days per month, with 7.4 migraine days of moderate to severe migraine during the same period.

[3] = test system: episodic and chronic migraine patients; assay: BHV3000-305 study: adverse events and liver safety on double-blind treatment
[4] = 370 patients who received rimegepant 75 mg every other day
[5] = Severity Mild, treated subjects N = 370
[6] = Severity Moderate or Severe, treated subjects N = 370
[7] = Severity Moderate, treated subjects N = 370
[8] = Severity Total, treated subjects N = 370

## N[C@@H]1c2cccnc2[C@H](OC(=O)N2CCC(n3c(=O)[nH]c4ncccc43)CC2)CC[C@H]1c1cccc(F)c1F [Rimegepant, [(5S,6S,9R)-5-amino-6-(2,3-difluorophenyl)-6,7,8,9-tetrahydro-5H-cyclohepta[b]pyridin-9-yl] 4-(2-oxo-3H-imidazo[4,5-b]pyridin-1-yl)piperidine-1-carboxylate]
[1]
  Pertussis: 0 n
[2]; (4.9−3.7)/3.7*100, participants not taking concomitant preventive treatment
  reduction in mean number of migraine days as compared to placebo: 32%
[2]; Evaluable mITT subjects, P-value 0.0013
  Change From OP in Mean Number of Total Migraine Days per Month in First Month, Least-squares mean, Difference (Rimegepant − Placebo): −0.9
[2]; Evaluable mITT subjects, P-value 0.0094
  Change From OP in Mean Number of Total Migraine Days per Month Overall, Least-squares mean, Difference (Rimegepant − Placebo): −0.7
[2]; Evaluable mITT subjects, P-value 0.0176, significant in hierarchical testing
  Primary Endpoint: Change From OP in Mean Number of Total Migraine Days per Month in Last Month, Least-squares mean, Difference (Rimegepant − Placebo): −0.8
[2]; Evaluable mITT subjects, P-value 0.0358
  MSQoL Restrictive Role Function Domain Score Change From Baseline at Week 12, Least-squares mean, Difference (Rimegepant − Placebo): 3.5
[2]; Evaluable mITT subjects, P-value 0.0734
  >=50% Reduction From OP in Mean Number of Moderate or Severe Migraine Days per Month in Last Month, Stratified Risk, Difference (Rimegepant − Placebo): 5.7
[2]; Evaluable mITT subjects, P-value 0.3868
  Rescue Medication Days per Month In Last Month, Least-squares mean, Difference (Rimegepant − Placebo): −0.2
[2]; Evaluable mITT subjects, P-value 0.9616
  MIDAS Total Score Change From Baseline at Week 12, Least-squares mean, Difference (Rimegepant − Placebo): −0.1
[3]; [4]
  ALT/AST elevations: relatedness to study drug as judged by independent liver monitoring panel: did not determine any ALT/AST elevations to be in the categories of probably or definitely related to study drug
  cases of ALT or AST>3×ULN and bilirubin>2×ULN: no cases
[3]; [5]
  Enterobiasis: 0 n
  Folliculitis: 0 n
  Oral candidiasis: 0 n
  Orchitis: 0 n
  Otitis media: 0 n
[3]; [6]
  Acute sinusitis: 0 n
  Appendicitis: 0 n
  Bacterial vaginosis: 0 n
  Herpes zoster: 0 n
  Pharyngitis streptococcal: 0 n
  Pneumonia: 0 n
  Pyelonephritis: 0 n
  Sepsis: 0 n
[3]; [7]
  Acute sinusitis: 0 n
  Appendicitis: 0 n
  Bacterial vaginosis: 0 n
  Herpes zoster: 0 n
  Pharyngitis streptococcal: 0 n
  Sepsis: 0 n
[3]; [8]
  Acute sinusitis: 0 n
  Appendicitis: 0 n
  Enterobiasis: 0 n
  Folliculitis: 0 n
  Oral candidiasis: 0 n
  Orchitis: 0 n
  Otitis media: 0 n
  Pelvic inflammatory disease: 0 n
  Pharyngitis streptococcal: 0 n
  Pneumonia: 0 n
  Pyelonephritis: 0 n
  Sepsis: 0 n
  Tooth infection: 0 n
